# From US20220323444A1, “Methods of Treating Advanced Prostate Cancer” (The Medical College of Wisconsin, Inc., priority 2019, published 2022)
# What was measured:
# Type in all cases: cell-based
# [1] = tested on: FL-AR, AR-V7 and AR-V9 mRNA and AR protein levels in PC cells; assay: AR mRNA (qRT-PCR) and AR / pYStat5 protein (immunoblot) in PC cells treated with Jak2 inhibitors; details: for FL and AR-V AR mRNA and protein levels: CWR22Rv1 CRPC cell line, FIGS. 6A-6B
# Procedure: Jak2 was inhibited for 3 days by Jak2 inhibitors AZD1480, gandotinib, pacritinib, baricitinib or fedratinib at indicated concentrations followed by RNA extraction and quantification of FL-AR, AR-V7 and AR-V9 mRNA levels by qRT-PCR.
# Immunoblot analysis of AR expression in PC cells treated with increasing concentrations of Jak2 inhibitors AZD1480, gandotinib, pacritinib or baricitinib for 72 h.
# (§1) We tested whether Stat5 regulation of AR mRNA and protein levels provides an opportunity to control AR levels pharmacologically by inhibition of Jak2 signaling. […] Finally, to evaluate the effect of PAC and FED on PC cell viability, CWR22Rv1 cells were treated with increasing concentrations of PAC or FED for 3 days.
# [2] = tested on: Stat5 and Jak2 phosphorylation in PC cells; assay: ENZ-induced Jak2-Stat5 phosphorylation in PC cells (IP and WB); details: CWR22Pc, LAPC4 and CWR22Pc-ENZ-R cells; AZD1480 800 nM, 12 days
# Procedure: CWR22Pc and LAPC4 PC cells were treated with ENZ or vehicle for the indicated periods of time. Levels of active Stat5 were determined by immunoprecipitation (IP) of Stat5 followed by immunoblotting (WB) for pStat5a/b and total Stat5. Whole cell lysates (WCL) were immunoblotted for pStat3, Stat3 and Actin. […] CWR22Pc and LAPC4 cells were transduced with lentiviral AR shRNA (shAR) or lenti-shCtrl for 3 days followed by treatment with ENZ or vehicle for 7 days at the indicated concentrations.
# PC cells were cultured with ENZ or Jak2 inhibitor AZD1480 (800 nM) alone or in combination for 12 days. Expression levels of active Stat5 were determined by IP of Stat5 followed by WB for pStat5a/b and total Stat5. WCLs were immunoblotted for pStat3, Stat3 and Actin. […] Jak2 was suppressed by lentiviral Jak2 shRNA vs. shCtrl in PC cells for 3 days followed by ENZ or vehicle for 7 days. Active Stat5, Stat5 and Jak2 levels were evaluated by IP and WB, as depicted. […] PC cells were treated with ENZ or vehicle for 6 h at the indicated concentrations. Control cells were stimulated with prolactin (Prl) (10 nM) for 20 min as control for cytokine-induced Jak2 phosphorylation. […] Alternatively, PC cells were treated with ENZ or vehicle for 12 days or stimulated with Prl for 20 min at the indicated concentrations. Stat5 and Jak2 were IP:ed and WB:ed for pStat5, pJak2, tot Stat5, and total Jak2.
# To investigate whether AR is required for ENZ induction of Stat5 signaling, we inhibited AR expression in CWR22Pc and LAPC4 cells by genetic knockdown using lentiviral expression of AR shRNA (FIG. 9C).
# To further assess the involvement of Jak2 in ENZ-induced Stat5 activation, Jak2 was genetically knocked down by lentiviral expression of Jak2 shRNA in CWR22Pc and LAPC4 cells for 3 days followed by ENZ treatment for 7 days.
# [3] = tested on: CWR22Rv1 PC cells; assay: Death / viability of CWR22Rv1 PC cells treated with Jak2 inhibitors
# Procedure: as §1
Structure (SMILES),FL and AR-V AR mRNA and protein levels [1],ENZ-induced Stat5 phosphorylation [2],"IC50 ([3]; 72 h, CWR22Rv1, at 3 days, read-out: IC50, induction of death of CWR22Rv1 PC cells) [nM]","induction of death of PC cells ([3]; FIG. 7D, 7E)","AR protein levels in PC cells ([1]; 72 h, immunoblot, FIG. 6B)","AR mRNA levels in PC cells ([1]; 3 days, qRT-PCR, FIG. 6A)","Stat5 phosphorylation ([1]; prostate cancer cells, FIG. 6B)"
"Cc1cc(Nc2nc(N[C@@H](C)c3ncc(F)cn3)ncc2Cl)n[nH]1 [AZD1480, 5-chloro-2-N-[(1S)-1-(5-fluoropyrimidin-2-yl)ethyl]-4-N-(5-methyl-1H-pyrazol-3-yl)pyrimidine-2,4-diamine]",dose-dependent reduction,blocked ENZ-induced Stat5 phosphorylation,,,,,
"CCS(=O)(=O)N1CC(CC#N)(n2cc(-c3ncnc4[nH]ccc34)cn2)C1 [baricitinib, 2-[1-Ethylsulfonyl-3-[4-(7H-pyrrolo[2,3-d]pyrimidin-4-yl)pyrazol-1-yl]azetidin-3-yl]acetonitrile]",dose-dependent reduction,,,,,,
"Cc1cc(Nc2cc(CN3CCOCC3)c3nc(C)c(Cc4ccc(Cl)cc4F)n3n2)n[nH]1 [gandotinib, 3-(4-Chloro-2-fluorobenzyl)-2-methyl-N-(5-methyl-1H-pyrazol-3-yl)-8-(morpholinomethyl)imidazo[1,2-b]pyridazin-6-amine]",dose-dependent reduction,,300,,,,
N#CCNC(=O)c1ccc(-c2ccnc(Nc3ccc(N4CCOCC4)cc3)n2)cc1 [momelotinib],dose-dependent reduction,,,does not provide the same effect of beneficial induction of cell death,did not result in the suppression of AR protein levels,does not suppress AR expression in PC cells,does not inhibit Stat5 phosphorylation
